How the values were obtained:
[1] = test system: HCV genotype 1a (H77 strain) replicon in HUH-7 cells; assay: HCV replicon luciferase reporter assay, genotype 1a; format: cell-based; settings: Hepatitis C virus, Huh-7, 72 h, HCV genotype 1a replicon luciferase assay, 3 days incubation, range class, read-out: LE_1a (EC50, range)
How it was run: (§1)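 Replicon inhibition for both genotypes was measured as Renilla luciferase signal (EnduRen, 7.5 μM final, 2 h) after 3-day, 37° C exposure of replicon-bearing HUH-7 cells in 4% FCS DMEM, 0.5% DMSO. The 1b construct carries S1179I; the 1a H77 construct carries P1496L and S2204I. Twenty-point, 3-fold dilutions were fitted four-parametrically for EC50, and CC50 was taken from multiplexed Cell Titer-Blue.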

[2] = test system: HCV genotype 1b (Con1) replicon in HUH-7 cells; assay: HCV replicon luciferase reporter assay, genotype 1b; format: cell-based; settings: Hepatitis C virus, Huh-7, 72 h, HCV genotype 1b replicon luciferase assay, 3 days incubation, range class, read-out: LE_1b (EC50, range)
How it was run: as §1

SMILES | EC50 [1] [nM] | EC50 [2] [nM]
COc1ccc2c(O[C@@H]3C[C@H]4C(=O)N[C@]5(C(=O)NS(=O)(=O)C6(CF)CC6)C[C@H]5/C=C\CC[C@@H](C)C[C@@H](C)[C@H](NC(=O)OC(C)(C)C(C)(F)F)C(=O)N4C3)ncc(C(F)(F)F)c2c1 [Compound 1167, 3,3-difluoro-2-methylbutan-2-yl((2R,6S,7R,9R,13aS,14aR,16aS,Z)-14a-(((1-(fluoromethyl)cyclopropyl)sulfonyl)carbamoyl)-2-((6-methoxy-4-(trifluoromethyl)isoquinolin-1-yl)oxy)-7,9-dimethyl-5,16-dioxo-1,2,3,5,6,7,8,9,10,11,13a,14,14a,15,16,16a-hexadecahydrocyclopropa[e]pyrrolo[1,2-a][1,4]diazacyclopentadecin-6-yl)carbamate] | < 5.46 | < 5.46
COc1ccc2c(O[C@@H]3C[C@H]4C(=O)N[C@]5(C(=O)NS(=O)(=O)C6(CF)CC6)C[C@H]5/C=C\CC[C@H](C)C[C@@H](C)[C@H](NC(=O)OC(C)(C)C(F)(F)F)C(=O)N4C3)nc(C(F)(F)F)cc2c1 [Compound 1168, 1,1,1-trifluoro-2-methylpropan-2-yl((2R,6S,7R,9S,13aS,14aR,16aS,Z)-14a-(((1-(fluoromethyl)cyclopropyl)sulfonyl)carbamoyl)-2-((6-methoxy-3-(trifluoromethyl)isoquinolin-1-yl)oxy)-7,9-dimethyl-5,16-dioxo-1,2,3,5,6,7,8,9,10,11,13a,14,14a,15,16,16a-hexadecahydrocyclopropa[e]pyrrolo[1,2-a][1,4]diazacyclopentadecin-6-yl)carbamate] | 4.82 to 103 | 4.82 to 103
COc1ccc2c(O[C@@H]3C[C@H]4C(=O)N[C@]5(C(=O)NS(=O)(=O)C6(CF)CC6)C[C@H]5/C=C\CC[C@@H](C)C[C@@H](C)[C@H](NC(=O)OC(C)(C)C(F)(F)F)C(=O)N4C3)nc(C(F)(F)F)cc2c1 [Compound 1169, 1,1,1-trifluoro-2-methylpropan-2-yl((2R,6S,7R,9R,13aS,14aR,16aS,Z)-14a-(((1-(fluoromethyl)cyclopropyl)sulfonyl)carbamoyl)-2-((6-methoxy-3-(trifluoromethyl)isoquinolin-1-yl)oxy)-7,9-dimethyl-5,16-dioxo-1,2,3,5,6,7,8,9,10,11,13a,14,14a,15,16,16a-hexadecahydrocyclopropa[e]pyrrolo[1,2-a][1,4]diazacyclopentadecin-6-yl)carbamate] | < 5.46 | < 5.46
COc1ccc2c(O[C@@H]3C[C@H]4C(=O)N[C@]5(C(=O)NS(=O)(=O)C6(CF)CC6)C[C@H]5/C=C\CC[C@H](C)C[C@@H](C)[C@H](NC(=O)OC(C)(C)C(C)(F)F)C(=O)N4C3)nc(C(F)(F)F)cc2c1 [Compound 1170, 3,3-difluoro-2-methylbutan-2-yl((2R,6S,7R,9S,13aS,14aR,16aS,Z)-14a-(((1-(fluoromethyl)cyclopropyl)sulfonyl)carbamoyl)-2-((6-methoxy-3-(trifluoromethyl)isoquinolin-1-yl)oxy)-7,9-dimethyl-5,16-dioxo-1,2,3,5,6,7,8,9,10,11,13a,14,14a,15,16,16a-hexadecahydrocyclopropa[e]pyrrolo[1,2-a][1,4]diazacyclopentadecin-6-yl)carbamate] | 4.82 to 103 | 4.82 to 103
COc1ccc2c(O[C@@H]3C[C@H]4C(=O)N[C@]5(C(=O)NS(=O)(=O)C6(CF)CC6)C[C@H]5/C=C\CC[C@@H](C)C[C@@H](C)[C@H](NC(=O)OC(C)(C)C(C)(F)F)C(=O)N4C3)nc(C(F)(F)F)cc2c1 [Compound 1171, 3,3-difluoro-2-methylbutan-2-yl((2R,6S,7R,9R,13aS,14aR,16aS,Z)-14a-(((1-(fluoromethyl)cyclopropyl)sulfonyl)carbamoyl)-2-((6-methoxy-3-(trifluoromethyl)isoquinolin-1-yl)oxy)-7,9-dimethyl-5,16-dioxo-1,2,3,5,6,7,8,9,10,11,13a,14,14a,15,16,16a-hexadecahydrocyclopropa[e]pyrrolo[1,2-a][1,4]diazacyclopentadecin-6-yl)carbamate] | < 5.46 | < 5.46
COc1ccc2c(O[C@@H]3C[C@H]4C(=O)N[C@]5(C(=O)NS(=O)(=O)C6(CF)CC6)C[C@H]5/C=C\CC[C@H](C)C[C@@H](C)[C@H](NC(=O)OC5(C(F)(F)F)CCCOC5)C(=O)N4C3)nc(C(F)(F)F)cc2c1 (stereo partly drawn) [Compound 1172, 3-(trifluoromethyl)tetrahydro-2H-pyran-3-yl((2R,6S,7R,9S,13aS,14aR,16aS,Z)-14a-(((1-(fluoromethyl)cyclopropyl)sulfonyl)carbamoyl)-2-((6-methoxy-3-(trifluoromethyl)isoquinolin-1-yl)oxy)-7,9-dimethyl-5,16-dioxo-1,2,3,5,6,7,8,9,10,11,13a,14,14a,15,16,16a-hexadecahydrocyclopropa[e]pyrrolo[1,2-a][1,4]diazacyclopentadecin-6-yl)carbamate] | > 87.4 | 4.82 to 103
COc1ccc2c(O[C@@H]3C[C@H]4C(=O)N[C@]5(C(=O)NS(=O)(=O)C6(CF)CC6)C[C@H]5/C=C\CC[C@@H](C)C[C@@H](C)[C@H](NC(=O)OC5(C(F)(F)F)CCCOC5)C(=O)N4C3)nc(C(F)(F)F)cc2c1 (stereo partly drawn) [Compound 1173, 3-(trifluoromethyl)tetrahydro-2H-pyran-3-yl((2R,6S,7R,9R,13aS,14aR,16aS,Z)-14a-(((1-(fluoromethyl)cyclopropyl)sulfonyl)carbamoyl)-2-((6-methoxy-3-(trifluoromethyl)isoquinolin-1-yl)oxy)-7,9-dimethyl-5,16-dioxo-1,2,3,5,6,7,8,9,10,11,13a,14,14a,15,16,16a-hexadecahydrocyclopropa[e]pyrrolo[1,2-a][1,4]diazacyclopentadecin-6-yl)carbamate] | < 5.46 | < 5.46
COc1ccc2c(O[C@@H]3C[C@H]4C(=O)N[C@]5(C(=O)NS(=O)(=O)C6(CF)CC6)C[C@H]5/C=C\CC[C@H](C)C[C@@H](C)[C@H](NC(=O)OC(C)(C)C(F)(F)F)C(=O)N4C3)ncc(C(F)(F)F)c2c1 [Compound 1174, 1,1,1-trifluoro-2-methylpropan-2-yl((2R,6S,7R,9S,13aS,14aR,16aS,Z)-14a-(((1-(fluoromethyl)cyclopropyl)sulfonyl)carbamoyl)-2-((6-methoxy-4-(trifluoromethyl)isoquinolin-1-yl)oxy)-7,9-dimethyl-5,16-dioxo-1,2,3,5,6,7,8,9,10,11,13a,14,14a,15,16,16a-hexadecahydrocyclopropa[e]pyrrolo[1,2-a][1,4]diazacyclopentadecin-6-yl)carbamate] | 4.82 to 103 | 4.82 to 103
COc1ccc2c(O[C@@H]3C[C@H]4C(=O)N[C@]5(C(=O)NS(=O)(=O)C6(CF)CC6)C[C@H]5/C=C\CC[C@@H](C)C[C@@H](C)[C@H](NC(=O)OC(C)(C)C(F)(F)F)C(=O)N4C3)ncc(C(F)(F)F)c2c1 [Compound 1175, 1,1,1-trifluoro-2-methylpropan-2-yl((2R,6S,7R,9R,13aS,14aR,16aS,Z)-14a-(((1-(fluoromethyl)cyclopropyl)sulfonyl)carbamoyl)-2-((6-methoxy-4-(trifluoromethyl)isoquinolin-1-yl)oxy)-7,9-dimethyl-5,16-dioxo-1,2,3,5,6,7,8,9,10,11,13a,14,14a,15,16,16a-hexadecahydrocyclopropa[e]pyrrolo[1,2-a][1,4]diazacyclopentadecin-6-yl)carbamate] | < 5.46 | < 5.46
